# Measured values taken from paper PMC6169531 (Journal of molecular biology, 2016).
# Tests used:
# Test in all cases: inhibition of methyl p-nitrophenyl phosphate hydrolysis, […] nm
# Type in all cases: biochemical
# [1] = target: AP (Escherichia coli alkaline phosphatase) (Escherichia coli, UniProt P00634, K350A)
# [2] = target: AP (Escherichia coli alkaline phosphatase) (Escherichia coli, UniProt P00634, D175A)
# [3] = target: AP (Escherichia coli alkaline phosphatase) (Escherichia coli, UniProt P00634, D123A)
# [4] = target: AP (Escherichia coli alkaline phosphatase) (Escherichia coli, UniProt P00634, E344Y)
# AP (Escherichia coli alkaline phosphatase) (Escherichia coli, UniProt P00634, E344Y), sequence (P00634 23-471 E344Y): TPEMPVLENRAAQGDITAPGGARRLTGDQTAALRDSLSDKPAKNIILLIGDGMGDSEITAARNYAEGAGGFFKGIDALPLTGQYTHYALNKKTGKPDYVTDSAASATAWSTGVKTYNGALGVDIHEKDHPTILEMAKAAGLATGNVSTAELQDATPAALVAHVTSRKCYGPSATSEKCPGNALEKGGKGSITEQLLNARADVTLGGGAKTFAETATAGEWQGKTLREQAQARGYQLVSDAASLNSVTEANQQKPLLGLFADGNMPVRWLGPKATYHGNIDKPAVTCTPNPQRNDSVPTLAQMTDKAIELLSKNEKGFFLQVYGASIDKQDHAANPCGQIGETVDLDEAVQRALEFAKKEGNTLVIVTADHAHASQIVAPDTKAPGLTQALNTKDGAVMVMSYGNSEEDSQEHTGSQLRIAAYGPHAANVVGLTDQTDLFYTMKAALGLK
# AP (Escherichia coli alkaline phosphatase) (Escherichia coli, UniProt P00634, D175A), sequence (P00634 23-471 D175A): as the sequence (P00634 23-471 E344Y) above, with D153A, Y322E counted along it
# AP (Escherichia coli alkaline phosphatase) (Escherichia coli, UniProt P00634, D123A), sequence (P00634 23-471, stated change not applied): as the sequence (P00634 23-471 E344Y) above, with Y322E counted along it
# AP (Escherichia coli alkaline phosphatase) (Escherichia coli, UniProt P00634, K350A), sequence (P00634 23-471 K350A): as the sequence (P00634 23-471 E344Y) above, with Y322E, K328A counted along it
SMILES,Ki [1] [µM],Ki [2] [µM],Ki [3] [µM],Ki [4] [µM]
[O]=[W](=[O])([OH])[OH] [tungstate],44,64,99,
[O]=[V]([OH])([OH])[OH] [vanadate],9.4,17,13,28
